Key:
mold/stain fungi = experiment: Dip treated fresh cut white pine blocks in sealed bags, visual mold and stain growth rating (Example 5); type: cell-based; conditions: 1% dip solution; for Visual evaluation Week 1 / Visual evaluation Week 2 / Visual evaluation Week 3 / Visual evaluation Week 4 / Visual evaluation Week 5 / Visual evaluation Week 6 / Visual evaluation Week 8: one minute, white pine blocks, no inoculation; for Efficacy against mold/stain fungi (in words): 8 weeks
Excerpt: Fresh cut white pine blocks (7.6×6.35×3.8 cm^3) were dipped in the prepared test formulation for one minute. The individual dipped wood block was placed in a plastic sandwich bag and the plastic bag was sealed to retain the moisture of the test wood blocks. No mold or stain fungi were inoculated on the test blocks. […] The test was completed in 8 weeks.

A. niger and P. citrinum = experiment: Visual mold growth rating on gypsum cuboids placed on inoculated Sabouraud's Dextrose Agar (Example 2); type: cell-based; conditions: for Visual evaluation Week 1 / Visual evaluation Week 2 / Visual evaluation Week 3 / Visual evaluation Week 4: 26° C., 70% relative humidity
Excerpt: Gypsum cuboids (30×40×25 mm^3) were made with the addition of the following formulations: • Sodium dehydroacetic acid (Na-DHA): 2500 ppm and 5000 ppm. • Carboquat® 250T ^3: 2500 ppm and 5000 ppm. • Carboquat® 250T/DHA 10:4 (wt./wt.): 2500 ppm and 5000 ppm. • ^3 Carboquat® 250T is an essentially aqueous solution containing approx. 50% of a mixture of carbonate and bicarbonate of didecyldimethylammonium. Carboquat® 250T is available from Lonza Inc., Allendale N.J.
Glass containers with Sabouraud's Dextrose Agar (SDA) on the bottom were prepared. Freshly-made spore suspensions of A. niger and P. citrinum were spread on the surface of SDA. The gypsum cuboids were air-dried and then placed on the top of the inoculated SDA. The containers were covered by aluminum foil and placed in an incubator with pre-set temperature of 26° C. and relative humidity of 70%. The test was completed at 4 weeks. Visual observation of mold growth on the gypsum cuboids was recorded weekly using the same rating system as in Example 1.

| Structure (SMILES) | Visual evaluation Week 1 (mold/stain fungi) | Visual evaluation Week 2 (mold/stain fungi) | Visual evaluation Week 3 (mold/stain fungi) | Visual evaluation Week 4 (mold/stain fungi) | Visual evaluation Week 5 (mold/stain fungi) | Visual evaluation Week 6 (mold/stain fungi) | Visual evaluation Week 8 (mold/stain fungi) | Efficacy against mold/stain fungi (in words) (mold/stain fungi) | Visual evaluation Week 1 (A. niger and P. citrinum; 2500 ppm in gypsum cuboid) | Visual evaluation Week 2 (A. niger and P. citrinum; 2500 ppm in gypsum cuboid) | Visual evaluation Week 3 (A. niger and P. citrinum; 2500 ppm in gypsum cuboid) | Visual evaluation Week 4 (A. niger and P. citrinum; 2500 ppm in gypsum cuboid) | Mold growth on gypsum cuboids (in words) (A. niger and P. citrinum; 5000 ppm) | Visual evaluation Week 1 (A. niger and P. citrinum; 5000 ppm in gypsum cuboid) | Visual evaluation Week 2 (A. niger and P. citrinum; 5000 ppm in gypsum cuboid) | Visual evaluation Week 3 (A. niger and P. citrinum; 5000 ppm in gypsum cuboid) | Visual evaluation Week 4 (A. niger and P. citrinum; 5000 ppm in gypsum cuboid) |
| --- | --- | --- | --- | --- | --- | --- | --- | --- | --- | --- | --- | --- | --- | --- | --- | --- | --- |
| O=C([O-])c1ccccc1.[Na+] [Na-Benzoate] | 2 (Medium mold growth (6-25% mold coverage)) | 4 (Severe mold growth (>50% mold coverage)) | 4 (Severe mold growth (>50% mold coverage)) | 4 (Severe mold growth (>50% mold coverage)) | 4 (Severe mold growth (>50% mold coverage)) | 4 (Severe mold growth (>50% mold coverage)) | 4 (Severe mold growth (>50% mold coverage)) | no efficacy |  |  |  |  |  |  |  |  |  |
| CC(=O)c1c([O-])cc(C)oc1=O.[Na+] [Na-DHA, Sodium dehydroacetic acid] | 0 | 0 | 0 | 0 | 1 (Slight mold growth (<5% mold coverage)) | 1 (Slight mold growth (<5% mold coverage)) | 2 (Medium mold growth (6-25% mold coverage)) | strong efficacy | 0 | 2 (Medium mold growth (6-25% mold coverage)) | 3 (Heavy mold growth (26-50% mold coverage)) | 3 (Heavy mold growth (26-50% mold coverage)) | no mold growth | 0 | 0 | 0 | 0 |
| C/C=C/C=C/C(=O)[O-].[Na+] [Na-Sorbate] | 2 (Medium mold growth (6-25% mold coverage)) | 4 (Severe mold growth (>50% mold coverage)) | 4 (Severe mold growth (>50% mold coverage)) | 4 (Severe mold growth (>50% mold coverage)) | 4 (Severe mold growth (>50% mold coverage)) | 4 (Severe mold growth (>50% mold coverage)) | 4 (Severe mold growth (>50% mold coverage)) | no efficacy |  |  |  |  |  |  |  |  |  |

Source: US20100105768A1, “MOLD-INHIBITING METHOD AND COMPOSITION” (priority 2008, published 2010)
